Results as given in the NIST ThermoML archive (doi:10.1016/j.jct.2013.04.009).
Numbers after ± are expanded uncertainties.

What was measured:
[1] = xn = mol fraction of the nth substance listed; settings: Ring tensiometer
[2] = Ring tensiometer

CCCCCCO [hexan-1-ol] + C[S+](C)[O-]
surface tension liquid-gas [mN/m], [1]
Settings | 288.15 K | 298.15 K | 308.15 K | 318.15 K | 328.15 K
x1 = 0.0276 | 38.76 ± 1.1 | 37.64 ± 1.1 | 37.53 ± 1.1 | 36.73 ± 1.1 | 35.16 ± 1.1
x1 = 0.0786 | 34.22 ± 1.1 | 33.57 ± 1.1 | 34.04 ± 1.1 | 33.39 ± 1.1 | 32.7 ± 1.1
x1 = 0.1661 | 31.83 ± 1.1 | 30.74 ± 1.1 | 30.98 ± 1.1 | 30.06 ± 1.1 | 28.96 ± 1.1
x1 = 0.2701 | 29.83 ± 1.1 | 29.35 ± 1.1 | 28.94 ± 1.1 | 28.16 ± 1.1 | 27.55 ± 1.1
x1 = 0.3741 | 28.72 ± 1.1 | 27.95 ± 1.1 | 27.68 ± 1.1 | 26.94 ± 1.1 | 26.24 ± 1.1
x1 = 0.4687 | 27.91 ± 1.1 | 27.29 ± 1.1 | 26.7 ± 1.1 | 26.16 ± 1.1 | 25.36 ± 1.1
x1 = 0.5385 | 27.47 ± 1.1 | 26.83 ± 1.1 | 26.27 ± 1.1 | 25.57 ± 1.1 | 25.04 ± 1.1
x1 = 0.5921 | 26.99 ± 1.1 | 26.24 ± 1.1 | 25.85 ± 1.1 | 25.07 ± 1.1 | 24.29 ± 1.1
x1 = 0.6345 | 26.53 ± 1.1 | 26.06 ± 1.1 | 25.62 ± 1.1 | 24.72 ± 1.1 | 24.02 ± 1.1
x1 = 0.7511 | 26 ± 1.1 | 25.85 ± 1.1 | 25.2 ± 1.1 | 24.44 ± 1.1 | 23.84 ± 1.1
x1 = 0.9512 | 25.48 ± 1.1 | 25.1 ± 1.1 | 24.75 ± 1.1 | 24.14 ± 1.1 | 23.12 ± 1.1

C[S+](C)[O-] [dimethyl sulfoxide] + CCCO
surface tension liquid-gas [mN/m], [1]
Settings | 288.15 K | 298.15 K | 308.15 K | 318.15 K | 328.15 K
x2 = 0.0454 | 40.3 ± 1.1 | 39.39 ± 1.1 | 37.85 ± 1.1 | 36.89 ± 1.1 | 36.64 ± 1.1
x2 = 0.1248 | 36.24 ± 1.1 | 35.91 ± 1.1 | 34.14 ± 1.1 | 33.79 ± 1.1 | 33.37 ± 1.1
x2 = 0.2498 | 33.09 ± 1.1 | 32.37 ± 1.1 | 31.06 ± 1.1 | 30.95 ± 1.1 | 30.07 ± 1.1
x2 = 0.3821 | 30.1 ± 1.1 | 29.48 ± 1.1 | 28.96 ± 1.1 | 28.33 ± 1.1 | 27.01 ± 1.1
x2 = 0.4997 | 28.34 ± 1.1 | 27.81 ± 1.1 | 27.06 ± 1.1 | 26.41 ± 1.1 | 25.5 ± 1.1
x2 = 0.5959 | 27.14 ± 1.1 | 26.34 ± 1.1 | 25.67 ± 1.1 | 25.02 ± 1.1 | 24.15 ± 1.1
x2 = 0.661 | 26.33 ± 1.1 | 25.7 ± 1.1 | 24.6 ± 1.1 | 24.15 ± 1.1 | 23.35 ± 1.1
x2 = 0.7081 | 25.71 ± 1.1 | 25.17 ± 1.1 | 24.41 ± 1.1 | 23.65 ± 1.1 | 22.77 ± 1
x2 = 0.7437 | 25.25 ± 1.1 | 24.74 ± 1.1 | 23.97 ± 1.1 | 23.15 ± 1 | 22.45 ± 1
x2 = 0.8523 | 24.28 ± 1.1 | 23.5 ± 1.1 | 22.89 ± 1 | 22.34 ± 1 | 21.64 ± 1
x2 = 0.9519 | 23.55 ± 1.1 | 22.58 ± 1 | 22.13 ± 1 | 21.5 ± 1 | 20.28 ± 1

C[S+](C)[O-] [dimethyl sulfoxide]
[2]
Settings | surface tension liquid-gas [mN/m]
288.15 K | 43.68 ± 1.1
298.15 K | 42.18 ± 1.1
308.15 K | 41.11 ± 1.1
318.15 K | 39.99 ± 1.1
328.15 K | 38.72 ± 1.1

CCCO [propan-1-ol]
[2]
Settings | surface tension liquid-gas [mN/m]
288.15 K | 23.24 ± 1
298.15 K | 22.5 ± 1
308.15 K | 21.39 ± 1
318.15 K | 20.88 ± 1
328.15 K | 20.18 ± 1

CCCCCCO [hexan-1-ol]
[2]
Settings | surface tension liquid-gas [mN/m]
288.15 K | 25.38 ± 1.1
298.15 K | 24.51 ± 1.1
308.15 K | 23.86 ± 1.1
318.15 K | 23.02 ± 1.1
328.15 K | 22.33 ± 1

C[S+](C)[O-] [dimethyl sulfoxide] + CCCCO
surface tension liquid-gas [mN/m], [1]
Settings | 288.15 K | 298.15 K | 308.15 K | 318.15 K | 328.15 K
x2 = 0.0373 | 39.63 ± 1.1 | 38.43 ± 1.1 | 38.16 ± 1.1 | 36.84 ± 1.1 | 36.19 ± 1.1
x2 = 0.1042 | 36.3 ± 1.1 | 35.44 ± 1.1 | 34.43 ± 1.1 | 33.54 ± 1.1 | 32.99 ± 1.1
x2 = 0.2136 | 32.33 ± 1.1 | 32.03 ± 1.1 | 30.37 ± 1.1 | 30.79 ± 1.1 | 29.37 ± 1.1
x2 = 0.3353 | 30.13 ± 1.1 | 29.72 ± 1.1 | 28.82 ± 1.1 | 28.06 ± 1.1 | 27.19 ± 1.1
x2 = 0.449 | 28.57 ± 1.1 | 27.92 ± 1.1 | 27.16 ± 1.1 | 26.61 ± 1.1 | 25.8 ± 1.1
x2 = 0.5461 | 27.41 ± 1.1 | 26.74 ± 1.1 | 25.98 ± 1.1 | 25.33 ± 1.1 | 24.35 ± 1.1
x2 = 0.614 | 26.65 ± 1.1 | 26.06 ± 1.1 | 25.27 ± 1.1 | 24.55 ± 1.1 | 23.85 ± 1.1
x2 = 0.6643 | 26.18 ± 1.1 | 25.55 ± 1.1 | 24.84 ± 1.1 | 23.98 ± 1.1 | 23.3 ± 1.1
x2 = 0.703 | 25.77 ± 1.1 | 25.17 ± 1.1 | 24.41 ± 1.1 | 23.6 ± 1.1 | 22.56 ± 1
x2 = 0.8512 | 25.14 ± 1.1 | 24.33 ± 1.1 | 23.41 ± 1.1 | 22.28 ± 1 | 20.86 ± 1
x2 = 0.9521 | 24.57 ± 1.1 | 23.98 ± 1.1 | 22.68 ± 1 | 21.94 ± 1 | 20.55 ± 1

CCCCO [butan-1-ol]
[2]
Settings | surface tension liquid-gas [mN/m]
288.15 K | 24.28 ± 1.1
298.15 K | 23.48 ± 1.1
308.15 K | 22.4 ± 1
318.15 K | 21.64 ± 1
328.15 K | 20.56 ± 1
